Data: PMC6447857, “Structural Study of Agmatine Iminohydrolase From Medicago truncatula, the Second Enzyme of the Agmatine Route of Putrescine Biosynthesis in Plants” (Frontiers in Plant Science, 2019)

Target: T1, MtAIH (Medicago truncatula, UniProt G7JT50)
T1 construct: gene AIH; ORF from codon 11 (leaf cDNA), pMCSG68, N-terminal His6-tag removed by TEV, Ser-Asn-Ala linker kept; E. coli BL21 Gold; homodimer (81 kDa by MALS)
Assay: X-ray crystallography (cocrystallization), […] A
Format: binding
Conditions: 10 mM ligand, Morpheus Screen, pH 6.5; active site; reaction product analog; bound in three of four chains

T1 sequence (G7JT50 11-374): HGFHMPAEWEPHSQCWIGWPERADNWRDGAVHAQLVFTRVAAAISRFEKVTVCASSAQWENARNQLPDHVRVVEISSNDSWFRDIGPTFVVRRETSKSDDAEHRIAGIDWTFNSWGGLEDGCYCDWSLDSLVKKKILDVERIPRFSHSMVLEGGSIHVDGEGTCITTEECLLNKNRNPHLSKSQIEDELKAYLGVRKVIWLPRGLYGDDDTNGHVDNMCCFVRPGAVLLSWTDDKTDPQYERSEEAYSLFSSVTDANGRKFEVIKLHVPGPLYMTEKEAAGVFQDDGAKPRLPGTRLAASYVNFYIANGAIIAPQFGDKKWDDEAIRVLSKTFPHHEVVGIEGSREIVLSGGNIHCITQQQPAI

NCCCCCC(N)=O [AHX, 6-aminohexanamide]
X-ray crystallography (cocrystallization), 2.20 A: The MtAIH-AHX structure was obtained by cocrystallization and presents the bound AHX
